What was measured:
Test in all cases: Test B pre-/postemergence plant response
Type in all cases: in vivo
[1] = test system: corn (Zea mays)
Procedure, shortened: (§1)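 Visual ratings on a 0–100 scale (100 = complete control) were made versus untreated controls 13–15 days after treatment in a greenhouse. Compounds in surfactant-containing non-phytotoxic solvent were applied preemergence to seeds in loam–sand blend or postemergence to 1- to 4-leaf plants (2–18 cm).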

[2] = test system: ragweed (common ragweed, Ambrosia elatior)
Procedure, shortened: as §1

[3] = test system: goosegrass (Eleusine indica)
Procedure, shortened: as §1

[4] = test system: large crabgrass (Digitaria sanguinalis)
Procedure, shortened: as §1

[5] = test system: wheat (Triticum aestivum)
Procedure, shortened: as §1

[6] = test system: wild oat (Avena fatua)
Procedure, shortened: as §1

[7] = test system: downy bromegrass (Bromus tectorum)
Procedure, shortened: as §1

[8] = test system: woolly cupgrass (Eriochloa villosa)
Procedure, shortened: as §1

[9] = test system: soybean (Glycine max)
Procedure, shortened: as §1

[10] = test system: lambsquarters (Chenopodium album)
Procedure, shortened: as §1

[11] = test system: blackgrass (Alopecurus myosuroides)
Procedure, shortened: as §1

[12] = test system: pigweed (Amaranthus retroflexus)
Procedure, shortened: as §1

[13] = test system: kochia (Kochia scoparia)
Procedure, shortened: as §1

[14] = test system: velvetleaf (Abutilon theophrasti)
Procedure, shortened: as §1

[15] = test system: johnsongrass (Sorghum halepense)
Procedure, shortened: as §1

[16] = test system: Surinam grass (Brachiaria decumbens)
Procedure, shortened: as §1

[17] = test system: yellow nutsedge (Cyperus esculentus)
Procedure, shortened: as §1

[18] = test system: Italian ryegrass (Lolium multiflorum)
Procedure, shortened: as §1

[19] = 250 g ai/ha, Preemergence, 0 to 100 scale
[20] = Postemergence, 31 g ai/ha, scale 0 to 100 (0 no effect, 100 complete control)
[21] = Postemergence, 62 g ai/ha, scale 0 (no effect) to 100 (complete control), 13 to 15 days
[22] = Postemergence, 125 g ai/ha, visual rating after 13 to 15 days, scale 0 (no effect) to 100 (complete control)
[23] = Postemergence, 250 g ai/ha, scale 0 to 100
[24] = Preemergence, 31 g ai/ha, scale 0 to 100 (0 no effect, 100 complete control)
[25] = Preemergence, 62 g ai/ha, scale 0 to 100, 0 no effect, 100 complete control
[26] = Preemergence, 125 g ai/ha, 0 to 100 scale

2-(3,5-difluorophenyl)-5-[(2-hydroxy-4-oxobicyclo[3.2.1]oct-2-en-3-yl)carbonyl]-3-(2-methoxyethyl)-4(3H)-pyrimidinone [Compound 243]
Plant response rating, Corn [1, 19]: 10 | Plant response rating, Corn [1, 20]: 15 | Plant response rating, Corn [1, 21]: 45 | Plant response rating, Corn [1, 22]: 75 | Corn plant response rating [1, 23]: 80 | Plant response rating, Corn [1, 24]: 0 | Plant response rating, Corn [1, 25]: 0 | Corn plant response rating [1, 26]: 0 | Plant response rating, Ragweed [2, 19]: 100 | Plant response rating, Ragweed [2, 20]: 70 | Plant response rating, Ragweed [2, 21]: 75 | Plant response rating, Ragweed [2, 22]: 75 | Ragweed plant response rating [2, 23]: 100 | Plant response rating, Ragweed [2, 24]: 55 | Plant response rating, Ragweed [2, 25]: 90 | Ragweed plant response rating [2, 26]: 100 | Plant response rating, Goosegrass [3, 19]: 100 | Plant response rating, Goosegrass [3, 20]: 60 | Plant response rating, Goosegrass [3, 21]: 85 | Plant response rating, Goosegrass [3, 22]: 90 | Goosegrass plant response rating [3, 23]: 100 | Plant response rating, Goosegrass [3, 24]: 75 | Goosegrass plant response rating [3, 26]: 100 | Plant response rating, Crabgrass, Large [4, 19]: 100 | Plant response rating, Crabgrass, Large [4, 20]: 70 | Plant response rating, Crabgrass, Large [4, 21]: 80 | Plant response rating, Crabgrass, Large [4, 22]: 85 | Crabgrass, Large plant response rating [4, 23]: 95 | Plant response rating, Crabgrass, Large [4, 24]: 0 | Plant response rating, Crabgrass, Large [4, 25]: 90 | Crabgrass, Large plant response rating [4, 26]: 100 | Plant response rating, Wheat [5, 19]: 5 | Plant response rating, Wheat [5, 20]: 0 | Plant response rating, Wheat [5, 21]: 5 | Plant response rating, Wheat [5, 22]: 30 | Wheat plant response rating [5, 23]: 30 | Plant response rating, Wheat [5, 24]: 0 | Plant response rating, Wheat [5, 25]: 0 | Wheat plant response rating [5, 26]: 0 | Plant response rating, Oat, Wild [6, 19]: 60 | Plant response rating, Oat, Wild [6, 20]: 0 | Plant response rating, Oat, Wild [6, 21]: 5 | Plant response rating, Oat, Wild [6, 22]: 40 | Oat, Wild plant response rating [6, 23]: 55 | Plant response rating, Oat, Wild [6, 24]: 0 | Plant response rating, Oat, Wild [6, 25]: 0 | Oat, Wild plant response rating [6, 26]: 0 | Plant response rating, Bromegrass, Downy [7, 19]: 10 | Plant response rating, Bromegrass, Downy [7, 20]: 5 | Plant response rating, Bromegrass, Downy [7, 21]: 30 | Plant response rating, Bromegrass, Downy [7, 22]: 40 | Bromegrass, Downy plant response rating [7, 23]: 50 | Plant response rating, Bromegrass, Downy [7, 24]: 0 | Plant response rating, Bromegrass, Downy [7, 25]: 0 | Bromegrass, Downy plant response rating [7, 26]: 5 | Plant response rating, Cupgrass, Woolly [8, 19]: 60 | Plant response rating, Cupgrass, Woolly [8, 20]: 70 | Plant response rating, Cupgrass, Woolly [8, 21]: 75 | Plant response rating, Cupgrass, Woolly [8, 22]: 80 | Cupgrass, Woolly plant response rating [8, 23]: 85 | Plant response rating, Cupgrass, Woolly [8, 24]: 0 | Plant response rating, Cupgrass, Woolly [8, 25]: 15 | Cupgrass, Woolly plant response rating [8, 26]: 45 | Plant response rating, Soybean [9, 19]: 80 | Plant response rating, Soybean [9, 20]: 70 | Plant response rating, Soybean [9, 21]: 75 | Plant response rating, Soybean [9, 22]: 85 | Soybean plant response rating [9, 23]: 98 | Plant response rating, Soybean [9, 24]: 0 | Plant response rating, Soybean [9, 25]: 10 | Plant response rating, Lambsquarters [10, 19]: 100 | Plant response rating, Lambsquarters [10, 20]: 75 | Plant response rating, Lambsquarters [10, 21]: 80 | Plant response rating, Lambsquarters [10, 22]: 80 | Lambsquarters plant response rating [10, 23]: 95 | Plant response rating, Lambsquarters [10, 24]: 100 | Plant response rating, Lambsquarters [10, 25]: 100 | Lambsquarters plant response rating [10, 26]: 100 | Plant response rating, Blackgrass [11, 19]: 40 | Plant response rating, Blackgrass [11, 20]: 0 | Plant response rating, Blackgrass [11, 21]: 0 | Plant response rating, Blackgrass [11, 22]: 40 | Blackgrass plant response rating [11, 23]: 70 | Plant response rating, Blackgrass [11, 24]: 0 | Plant response rating, Blackgrass [11, 25]: 0 | Blackgrass plant response rating [11, 26]: 20 | Plant response rating, Pigweed [12, 19]: 100 | Plant response rating, Pigweed [12, 20]: 80 | Plant response rating, Pigweed [12, 21]: 85 | Plant response rating, Pigweed [12, 22]: 100 | Pigweed plant response rating [12, 23]: 100 | Plant response rating, Pigweed [12, 24]: 50 | Plant response rating, Pigweed [12, 25]: 100 | Pigweed plant response rating [12, 26]: 100 | Plant response rating, Kochia [13, 19]: 100 | Plant response rating, Kochia [13, 20]: 10 | Plant response rating, Kochia [13, 21]: 15 | Plant response rating, Kochia [13, 22]: 25 | Kochia plant response rating [13, 23]: 85 | Plant response rating, Kochia [13, 24]: 15 | Plant response rating, Kochia [13, 25]: 100 | Kochia plant response rating [13, 26]: 100 | Plant response rating, Velvetleaf [14, 19]: 100 | Plant response rating, Velvetleaf [14, 20]: 85 | Plant response rating, Velvetleaf [14, 21]: 85 | Plant response rating, Velvetleaf [14, 22]: 90 | Velvetleaf plant response rating [14, 23]: 98 | Plant response rating, Velvetleaf [14, 24]: 98 | Plant response rating, Velvetleaf [14, 25]: 100 | Velvetleaf plant response rating [14, 26]: 100 | Plant response rating, Johnsongrass [15, 19]: 98 | Plant response rating, Johnsongrass [15, 20]: 60 | Plant response rating, Johnsongrass [15, 21]: 70 | Plant response rating, Johnsongrass [15, 22]: 85 | Johnsongrass plant response rating [15, 23]: 95 | Plant response rating, Johnsongrass [15, 24]: 0 | Plant response rating, Johnsongrass [15, 25]: 85 | Johnsongrass plant response rating [15, 26]: 90 | Plant response rating, Surinam Grass [16, 19]: 95 | Plant response rating, Surinam Grass [16, 20]: 55 | Plant response rating, Surinam Grass [16, 21]: 65 | Plant response rating, Surinam Grass [16, 22]: 75 | Surinam Grass plant response rating [16, 23]: 85 | Plant response rating, Surinam Grass [16, 24]: 0 | Plant response rating, Surinam Grass [16, 25]: 45 | Surinam Grass plant response rating [16, 26]: 95 | Plant response rating, Nutsedge, Yellow [17, 19]: 95 | Plant response rating, Nutsedge, Yellow [17, 20]: 20 | Plant response rating, Nutsedge, Yellow [17, 21]: 25 | Plant response rating, Nutsedge, Yellow [17, 22]: 60 | Nutsedge, Yellow plant response rating [17, 23]: 70 | Plant response rating, Nutsedge, Yellow [17, 24]: 0 | Plant response rating, Nutsedge, Yellow [17, 25]: 45 | Nutsedge, Yellow plant response rating [17, 26]: 80 | Plant response rating, Ryegrass, Italian [18, 19]: 40 | Plant response rating, Ryegrass, Italian [18, 20]: 0 | Plant response rating, Ryegrass, Italian [18, 21]: 0 | Plant response rating, Ryegrass, Italian [18, 22]: 30 | Ryegrass, Italian plant response rating [18, 23]: 45 | Plant response rating, Ryegrass, Italian [18, 24]: 0 | Plant response rating, Ryegrass, Italian [18, 25]: 0 | Ryegrass, Italian plant response rating [18, 26]: 0

From patent publication US8952024B2, “Herbicidal pyrimidone derivatives” (E I du Pont de Nemours and Company, priority 2009, dated 2015)
